Drawing on the Kinase Knowledgebase extract (Sharma et al. 2016), this text covers IC50 for 19 compounds.

The first test deals with EGFR (UniProt P00533).
EGFR, sequence (P00533 whole entry, looked up): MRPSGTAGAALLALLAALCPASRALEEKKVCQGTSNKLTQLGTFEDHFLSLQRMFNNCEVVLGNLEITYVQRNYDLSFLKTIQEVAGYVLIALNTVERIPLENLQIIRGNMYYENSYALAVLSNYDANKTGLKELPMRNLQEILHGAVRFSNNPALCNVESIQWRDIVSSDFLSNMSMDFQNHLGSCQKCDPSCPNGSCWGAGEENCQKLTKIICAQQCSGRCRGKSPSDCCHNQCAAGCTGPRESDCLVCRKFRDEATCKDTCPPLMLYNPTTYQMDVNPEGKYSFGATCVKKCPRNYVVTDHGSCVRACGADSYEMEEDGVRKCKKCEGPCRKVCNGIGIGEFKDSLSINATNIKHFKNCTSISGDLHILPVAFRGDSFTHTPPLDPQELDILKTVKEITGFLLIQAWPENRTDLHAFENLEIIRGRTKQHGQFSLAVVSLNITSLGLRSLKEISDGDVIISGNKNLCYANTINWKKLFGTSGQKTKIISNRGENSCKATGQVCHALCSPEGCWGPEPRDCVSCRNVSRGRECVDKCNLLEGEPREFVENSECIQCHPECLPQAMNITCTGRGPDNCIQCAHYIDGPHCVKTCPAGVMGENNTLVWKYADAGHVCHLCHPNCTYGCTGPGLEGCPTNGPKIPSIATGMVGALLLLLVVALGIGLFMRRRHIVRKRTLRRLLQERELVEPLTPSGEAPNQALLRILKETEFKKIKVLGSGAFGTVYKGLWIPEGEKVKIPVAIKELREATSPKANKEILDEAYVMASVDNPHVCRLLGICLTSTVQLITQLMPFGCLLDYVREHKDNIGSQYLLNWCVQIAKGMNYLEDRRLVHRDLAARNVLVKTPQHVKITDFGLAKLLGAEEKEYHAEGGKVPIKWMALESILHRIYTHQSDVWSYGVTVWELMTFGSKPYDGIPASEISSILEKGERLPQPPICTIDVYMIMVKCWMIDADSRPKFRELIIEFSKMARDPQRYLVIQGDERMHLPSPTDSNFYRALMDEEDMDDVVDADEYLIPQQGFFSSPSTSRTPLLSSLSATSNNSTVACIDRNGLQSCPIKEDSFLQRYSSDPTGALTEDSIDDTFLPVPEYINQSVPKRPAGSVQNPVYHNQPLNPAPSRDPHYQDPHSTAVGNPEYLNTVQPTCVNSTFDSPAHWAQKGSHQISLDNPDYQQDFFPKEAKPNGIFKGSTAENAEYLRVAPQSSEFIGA
Assay: not given
For the compound `CC(C)(N)[C@H]1CC[C@H](C(=O)Nc2ccncc2)CC1`, the IC50 was 100 µM.

The target in the next test is MAPK14 (UniProt Q16539). Nature of the test: Inhibition of MAPK14 Kinase Activity.
MAPK14, sequence (Q16539 whole entry, looked up): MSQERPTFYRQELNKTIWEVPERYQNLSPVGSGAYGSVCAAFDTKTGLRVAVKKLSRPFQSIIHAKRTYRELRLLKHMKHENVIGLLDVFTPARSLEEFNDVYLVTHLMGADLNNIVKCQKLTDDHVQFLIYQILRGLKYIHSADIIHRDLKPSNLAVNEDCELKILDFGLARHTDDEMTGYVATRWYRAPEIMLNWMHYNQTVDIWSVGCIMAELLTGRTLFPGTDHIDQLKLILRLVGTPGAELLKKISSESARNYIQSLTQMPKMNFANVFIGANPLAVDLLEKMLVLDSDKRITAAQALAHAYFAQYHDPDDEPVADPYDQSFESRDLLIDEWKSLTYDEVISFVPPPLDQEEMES
`CC(C)(N)[C@H]1CC[C@H](C(=O)Nc2ccncc2)CC1` yielded an IC50 above 100 µM. Same read-out and setting: in the case of `Cc1cncc2cccc(S(=O)(=O)N3CCCNC[C@@H]3C)c12` it was 100 µM.

The target in the next test is ROCK2 (UniProt O75116). Description: Inhibition of ROCK2 Kinase Activity.
ROCK2, sequence (O75116 whole entry, looked up): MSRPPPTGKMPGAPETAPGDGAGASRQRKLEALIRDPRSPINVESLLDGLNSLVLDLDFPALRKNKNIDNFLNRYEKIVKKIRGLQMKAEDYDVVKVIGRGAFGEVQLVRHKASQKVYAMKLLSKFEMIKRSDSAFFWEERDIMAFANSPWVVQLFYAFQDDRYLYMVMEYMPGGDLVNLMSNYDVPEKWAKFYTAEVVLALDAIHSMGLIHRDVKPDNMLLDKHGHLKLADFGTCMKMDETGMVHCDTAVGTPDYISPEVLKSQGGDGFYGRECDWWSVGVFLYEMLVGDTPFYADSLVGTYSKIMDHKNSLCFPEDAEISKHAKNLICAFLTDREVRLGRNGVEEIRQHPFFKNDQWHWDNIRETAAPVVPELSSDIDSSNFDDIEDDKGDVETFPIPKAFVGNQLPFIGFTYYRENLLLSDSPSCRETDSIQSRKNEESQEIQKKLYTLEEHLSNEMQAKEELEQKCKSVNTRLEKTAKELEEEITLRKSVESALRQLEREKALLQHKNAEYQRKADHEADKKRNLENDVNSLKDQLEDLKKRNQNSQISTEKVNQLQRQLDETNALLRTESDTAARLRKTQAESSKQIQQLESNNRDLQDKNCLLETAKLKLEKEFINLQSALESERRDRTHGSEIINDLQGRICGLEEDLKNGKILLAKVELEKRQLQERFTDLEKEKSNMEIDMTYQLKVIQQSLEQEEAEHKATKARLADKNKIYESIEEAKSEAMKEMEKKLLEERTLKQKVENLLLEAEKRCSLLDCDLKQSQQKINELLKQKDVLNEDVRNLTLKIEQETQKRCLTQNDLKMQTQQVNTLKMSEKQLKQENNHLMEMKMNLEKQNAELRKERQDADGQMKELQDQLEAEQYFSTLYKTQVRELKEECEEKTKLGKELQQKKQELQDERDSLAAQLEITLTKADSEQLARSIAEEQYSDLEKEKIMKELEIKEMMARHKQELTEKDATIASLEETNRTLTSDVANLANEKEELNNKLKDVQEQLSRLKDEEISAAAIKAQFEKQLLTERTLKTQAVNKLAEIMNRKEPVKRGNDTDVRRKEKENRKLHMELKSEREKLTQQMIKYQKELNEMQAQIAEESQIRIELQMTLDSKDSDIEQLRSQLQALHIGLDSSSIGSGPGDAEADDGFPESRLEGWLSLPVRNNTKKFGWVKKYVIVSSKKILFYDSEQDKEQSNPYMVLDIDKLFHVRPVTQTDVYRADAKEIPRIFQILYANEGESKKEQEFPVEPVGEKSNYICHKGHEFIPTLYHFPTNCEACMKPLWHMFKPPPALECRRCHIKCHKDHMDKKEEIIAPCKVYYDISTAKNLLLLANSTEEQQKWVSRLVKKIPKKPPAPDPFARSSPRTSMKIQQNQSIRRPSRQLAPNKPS
`Cc1cncc2cccc(S(=O)(=O)N3CCNCC(C)C3)c12` (stereo unspecified) showed a 50% inhibitory concentration (IC50) of 107 nM. In other words, the sub-micromolar range. Still for that read-out and setting: in the case of `NCC(=O)N1CCCN(S(=O)(=O)c2cccc3cnccc23)CC1` it was 527 nM; in that of `C#Cc1cncc2cccc(S(=O)(=O)N3CCCN(C(=O)CN)C[C@@H]3C)c12`, 42.9 nM. On the same count and under the same terms, in the case of `Cc1cncc2cccc(S(=O)(=O)N3CCCNCC3)c12` it was 96.8 nM.

`Cc1cncc2cccc(S(=O)(=O)N3CCCN(C(=O)CN)C[C@@H]3C)c12` showed an IC50 of 11.8 nM.

As to `C[C@H]1CNCCCN1S(=O)(=O)c1cccc2cncc(Cl)c12`, the IC50 was 12.2 nM.

Compound `Cc1cncc2cccc(S(=O)(=O)N3CCNC(C)CC3)c12` (stereo unspecified) returned an IC50 of 123 nM. Still for that read-out and setting: in the case of `C[C@H]1CN(C(=O)CN)CCCN1S(=O)(=O)c1cccc2cncc(Br)c12` it was 42.9 nM. On the same count and under the same terms, the same measure for `Cc1cncc2cccc(S(=O)(=O)N3CCCN(C(=O)CN)CC3)c12`: 37.6 nM; for `C[C@H]1CNCCCN1S(=O)(=O)c1cccc2cncc(Br)c12`: 5.83 nM; for `Cc1cncc2cccc(S(=O)(=O)N3CCCNC(C)C3)c12` (stereo unspecified): 80.6 nM. On the same count and under the same terms, the same measure for `C#Cc1cncc2cccc(S(=O)(=O)N3CCCNC[C@@H]3C)c12`: 6 nM; for `C[C@H]1CNCCCN1S(=O)(=O)c1cccc2cncc(O)c12`: 2750 nM.

`CC(C)(N)[C@H]1CC[C@H](C(=O)Nc2ccncc2)CC1` yielded an IC50 of 162 nM. Compared with the last compound, the IC50 is about 17-fold lower. The compound `CCc1cncc2cccc(S(=O)(=O)N3CCCNC[C@@H]3C)c12` showed a concentration for half-maximal inhibition (IC50) of 656 nM. Same read-out and setting: in the case of `CC[C@H]1CNCCCN1S(=O)(=O)c1cccc2cncc(C)c12` it was 113 nM.

`C[C@H]1CNCCCN1S(=O)(=O)c1cccc2cncc(C#N)c12` returned a half-inhibitory concentration (IC50) of 426 nM. Same read-out and setting: in the case of `Cc1cncc2cccc(S(=O)(=O)N3CCCNC[C@@H]3C(C)C)c12` it was 804 nM.
